By logP is commonly meant a log measure of how a compound divides between an organic and an aqueous phase. A higher logP goes with higher lipophilicity.

The nature of the series: method code SF-AS, from DOI: 10.1080/02772249909358822.
Consider `CCCOP(=O)(OCCC)ON=C(C#N)c1csc2ccccc12`, for which the logP is 1.67.
`CC(C)OP(=O)(O/N=C(/C#N)c1ccccc1)OC(C)C` registered a logP of 0.06.
Compound `CCOP(=S)(OCC)ON=C(C#N)c1ccc(Cl)cc1` came in with a logP of 0.47.
Under `COP(=O)(OC)ON=C(C#N)c1ccc(F)cc1` stands -1.08; under `CCOP(=S)(OCC)ON=C(C#N)c1ccc(F)cc1`, 0.35.
Compound `COP(=S)(OC)ON=C(C#N)c1csc2ccccc12` registered a log partition coefficient (logP) of 1.94.
Under `COP(=O)(OC)ON=C(C#N)c1csc2ccccc12` stands 0.76.
Under `COc1ccc(C(C#N)=NOP(=S)(OC(C)C)OC(C)C)cc1OC` stands 0.47; under `CC(C)OP(=O)(ON=C(C#N)c1ccc(F)cc1)OC(C)C`, -0.43.
Under `CCOP(=S)(OCC)ON=C(C#N)c1ccc(OC)c(OC)c1` stands -0.19; under `COc1ccc(C(C#N)=NOP(=O)(OC(C)C)OC(C)C)cc1OC`, -0.38; under `CC(C)OP(=S)(O/N=C(/C#N)c1ccccc1)OC(C)C`, 2.07.
`CCOP(=S)(OCC)ON=C(C#N)c1csc2ccccc12` yielded a logP of 2.56.
Under `COP(=O)(OC)O/N=C(/C#N)c1ccccc1` stands -1.01.
Under `CC(C)OP(=O)(ON=C(C#N)c1csc2ccccc12)OC(C)C` stands 1.56.
Under `COC(=O)c1oc2ccccc2c1C(C#N)=NOP(=O)(OC(C)C)OC(C)C` stands 1.36.
As for `CC(C)OP(=O)(ON=C(C#N)c1ccc(Cl)cc1)OC(C)C`, the logP was -0.2.
Under `CCCCOP(=O)(OCCCC)ON=C(C#N)c1csc2ccccc12` stands 2.73.
Under `CCOP(=O)(OCC)ON=C(C#N)c1csc2ccccc12` stands 0.56.

(Values after the SangsterLogP compilation.)
